ChEMBL document CHEMBL1201862, “PubChem BioAssay data set” (2004)
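Five compound concentrations were applied to cells in 96-well plates for 48 hours; endpoints were derived by simple linear interpolation of the resulting dose-response curve. The concentration for 50% growth inhibition is given as GI50.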 Activity calls are given as the source filed them. Rule as the data show it: active = GI50 up to about 1.1 µM and inactive = higher.

Key:
Assay in all cases: growth of human tumour cells (NCI), 48 h
Malme-3M = tested on: Malme-3M
DU-145 = tested on: DU-145
MDA-N = tested on: MDA-N
MCF7 = tested on: MCF7
SN12C = tested on: SN12C
HT-29 = tested on: HT-29
HOP-62 = tested on: HOP-62
SNB-75 = tested on: SNB-75
HCT-15 = tested on: HCT-15
CCRF-CEM = tested on: CCRF-CEM
TK-10 = tested on: TK-10
NCI/ADR-RES = tested on: NCI/ADR-RES
PC-3 = tested on: PC-3
786-0 = tested on: 786-0
NCI-H460 = tested on: NCI-H460
SW-620 = tested on: SW-620
SK-OV-3 = tested on: SK-OV-3
HOP-92 = tested on: HOP-92
HCC 2998 = tested on: HCC 2998
NCI-H226 = tested on: NCI-H226

| SMILES | GI50 (Malme-3M) | GI50 (DU-145) | GI50 (MDA-N) | GI50 (MCF7) | GI50 (SN12C) | GI50 (HT-29) | GI50 (HOP-62) | GI50 (SNB-75) | GI50 (HCT-15) [µM] | GI50 (CCRF-CEM) | GI50 (TK-10) | GI50 (NCI/ADR-RES) | GI50 (PC-3) | GI50 (786-0) | GI50 (NCI-H460) | GI50 (SW-620) | GI50 (SK-OV-3) | GI50 (HOP-92) | GI50 (HCC 2998) | GI50 (NCI-H226) |
| --- | --- | --- | --- | --- | --- | --- | --- | --- | --- | --- | --- | --- | --- | --- | --- | --- | --- | --- | --- | --- |
| CCC(Cc1cnc2nc(N)nc(N)c2n1)c1ccc(C(=O)NC(CCC(=O)O)C(=O)O)cc1 (configuration not stated) | 0.0127 µM (active) | 0.000548 µM (active) | 0.000575 µM (active) | 0.0628 µM (active) | 0.000551 µM (active) | 0.000327 µM (active) | 0.00515 µM (active) | 0.329 µM (active) | 0.000632 | < 0.0001 µM (active) | > 100 µM (inactive) | 0.000711 µM (active) | < 0.0001 µM (active) | 0.000146 µM (active) | 0.000315 µM (active) | 0.000176 µM (active) | – | – | – | – |
| COc1cccc(C2SCC(=O)N2c2ccc(-n3c(-c4ccccc4)nc4ccccc4c3=O)cc2)c1OC (configuration not stated) | > 100 µM (inactive) | > 100 µM (inactive) | > 100 µM (inactive) | – | > 100 µM (inactive) | > 100 µM (inactive) | > 100 µM (inactive) | > 60.5 µM (inactive) | > 100 | > 100 µM (inactive) | > 100 µM (inactive) | > 100 µM (inactive) | > 100 µM (inactive) | > 100 µM (inactive) | > 100 µM (inactive) | > 100 µM (inactive) | > 100 µM (inactive) | > 100 µM (inactive) | > 100 µM (inactive) | > 87.9 µM (inactive) |
| NC(=O)C1N=NSC1NC(=O)c1ccc([N+](=O)[O-])cc1 (configuration not stated) | 60.3 µM (inactive) | 78.5 µM (inactive) | 67.3 µM (inactive) | 43.5 µM (inactive) | 47.5 µM (inactive) | 36.9 µM (inactive) | > 100 µM (inactive) | 67.3 µM (inactive) | 53.8 | 43.5 µM (inactive) | 54.8 µM (inactive) | 36.6 µM (inactive) | 26.6 µM (inactive) | > 100 µM (inactive) | 34.4 µM (inactive) | 50.6 µM (inactive) | 58.9 µM (inactive) | – | 37.6 µM (inactive) | 54.8 µM (inactive) |
| Nc1nc(Nc2ccccc2)sc1C(=O)c1c[nH]c2ccccc12 | 19.4 µM (inactive) | 9.89 µM (inactive) | 12.4 µM (inactive) | 11.8 µM (inactive) | 15.7 µM (inactive) | 3.73 µM (inactive) | 16.7 µM (inactive) | – | 3.95 | 3.2 µM (inactive) | 3.09 µM (inactive) | 12.6 µM (inactive) | 11.6 µM (inactive) | 5.52 µM (inactive) | 4.23 µM (inactive) | 11.1 µM (inactive) | 16.6 µM (inactive) | 16.4 µM (inactive) | – | 10.6 µM (inactive) |
| COc1ccc(-c2c3c(n(C4OC(COC(C)=O)C(OC(C)=O)C(OC(C)=O)C4OC(C)=O)c(=S)c2C#N)CCCC3)cc1 (configuration not stated) | 82.6 µM (inactive) | 44.9 µM (inactive) | 91.4 µM (inactive) | > 100 µM (inactive) | > 100 µM (inactive) | > 100 µM (inactive) | 89.3 µM (inactive) | 16.4 µM (inactive) | 41.5 | 25.5 µM (inactive) | > 100 µM (inactive) | 54.1 µM (inactive) | 19.5 µM (inactive) | > 100 µM (inactive) | 39.8 µM (inactive) | 51.5 µM (inactive) | > 100 µM (inactive) | – | > 100 µM (inactive) | > 100 µM (inactive) |
| COc1ccc(N(C(=O)OC(C)(C)C)[C@@H]2C(C)=C[C@H]([S@@+]([O-])c3ccc(C)cc3)[C@@H]3C(=O)N(C)C(=O)[C@@H]32)cc1 | 18.6 µM (inactive) | 30.2 µM (inactive) | 18.3 µM (inactive) | 15.2 µM (inactive) | 11 µM (inactive) | 21.5 µM (inactive) | 24.4 µM (inactive) | 4.94 µM (inactive) | 27.5 | 5.48 µM (inactive) | 17.1 µM (inactive) | 21.5 µM (inactive) | 23.9 µM (inactive) | 18.1 µM (inactive) | 25.2 µM (inactive) | 20.9 µM (inactive) | 13.2 µM (inactive) | 17.7 µM (inactive) | – | 16.6 µM (inactive) |
| Cc1cc2c(Br)cc(Br)c(O)c2nc1C(=O)c1ccccc1 | 33.2 µM (inactive) | 17 µM (inactive) | 16.2 µM (inactive) | 10.1 µM (inactive) | 20.2 µM (inactive) | 28.4 µM (inactive) | 14 µM (inactive) | > 74.1 µM (inactive) | 14 | 8.11 µM (inactive) | 28.4 µM (inactive) | 4.01 µM (inactive) | 13.4 µM (inactive) | 10.2 µM (inactive) | 10.6 µM (inactive) | 55.8 µM (inactive) | – | – | 18.7 µM (inactive) | > 51.1 µM (inactive) |
| CC(C)(CN1CCCCC1)C(/C=C/c1ccc(Cl)c(Cl)c1)=N\NC(=O)N/N=C(/C=C/c1ccc(Cl)c(Cl)c1)C(C)(C)CN1CCCCC1 | 1.55 µM (inactive) | 1.85 µM (inactive) | 1.42 µM (inactive) | 1.54 µM (inactive) | 1.77 µM (inactive) | 0.361 µM (active) | 1.87 µM (inactive) | 1.55 µM (inactive) | 1.08 | 1.76 µM (inactive) | 1.66 µM (inactive) | 1.73 µM (inactive) | > 10 µM (inactive) | 1.48 µM (inactive) | 1.35 µM (inactive) | 1.62 µM (inactive) | 1.92 µM (inactive) | – | 1.69 µM (inactive) | 2.3 µM (inactive) |
| COC(=O)[C@@H](NC(=O)N(Cc1ccccc1)C[C@H](CC(C)C)NC(=O)[C@@H](NC(=O)OC(C)(C)C)C(C)C)C(C)C | > 100 µM (inactive) | > 100 µM (inactive) | > 100 µM (inactive) | – | – | > 100 µM (inactive) | > 100 µM (inactive) | 33.7 µM (inactive) | > 100 | – | > 100 µM (inactive) | > 100 µM (inactive) | > 100 µM (inactive) | > 100 µM (inactive) | > 100 µM (inactive) | > 100 µM (inactive) | > 100 µM (inactive) | > 100 µM (inactive) | > 100 µM (inactive) | > 100 µM (inactive) |
| COP(=O)(OC)C(Nc1ccc(Cc2ccc(NC(c3ccco3)P(=O)(OC)OC)cc2)cc1)c1ccco1 (configuration not stated) | 47.9 µM (inactive) | > 100 µM (inactive) | > 100 µM (inactive) | > 100 µM (inactive) | 97.1 µM (inactive) | > 100 µM (inactive) | 4.62 µM (inactive) | 3.33 µM (inactive) | > 100 | > 100 µM (inactive) | 8.77 µM (inactive) | > 100 µM (inactive) | 52.7 µM (inactive) | 13.8 µM (inactive) | > 100 µM (inactive) | > 100 µM (inactive) | 18.8 µM (inactive) | 6.47 µM (inactive) | – | > 100 µM (inactive) |
| O=C(CC(C(=O)c1cccs1)c1cccs1)c1ccsc1 (configuration not stated) | 40.8 µM (inactive) | > 100 µM (inactive) | 19.4 µM (inactive) | 32.8 µM (inactive) | 39.4 µM (inactive) | 57.9 µM (inactive) | 73.6 µM (inactive) | 40.2 µM (inactive) | 38.3 | 37.9 µM (inactive) | > 100 µM (inactive) | 32.7 µM (inactive) | 35.8 µM (inactive) | 50.5 µM (inactive) | 42.4 µM (inactive) | 44.1 µM (inactive) | 50.1 µM (inactive) | – | 57.4 µM (inactive) | > 100 µM (inactive) |
| O=C(O)CCNc1ncc2c(n1)-c1ccccc1OC2 | > 100 µM (inactive) | > 100 µM (inactive) | > 100 µM (inactive) | > 100 µM (inactive) | > 100 µM (inactive) | > 100 µM (inactive) | > 100 µM (inactive) | 28.8 µM (inactive) | > 100 | > 100 µM (inactive) | > 100 µM (inactive) | > 100 µM (inactive) | > 100 µM (inactive) | > 100 µM (inactive) | > 100 µM (inactive) | > 100 µM (inactive) | > 100 µM (inactive) | 29 µM (inactive) | – | > 100 µM (inactive) |
| Oc1cc(O)c2c(c1)OC(c1ccc(O)c(O)c1)C(O)C2c1c(O)cc(O)c2c1OC(c1ccc(O)c(O)c1)C(O)C2 (configuration not stated) | > 100 µM (inactive) | > 100 µM (inactive) | > 100 µM (inactive) | > 100 µM (inactive) | > 100 µM (inactive) | > 100 µM (inactive) | > 100 µM (inactive) | > 100 µM (inactive) | > 100 | – | > 100 µM (inactive) | > 100 µM (inactive) | > 100 µM (inactive) | > 100 µM (inactive) | 85.1 µM (inactive) | 45.4 µM (inactive) | > 100 µM (inactive) | > 100 µM (inactive) | – | > 100 µM (inactive) |
| CC(=O)NC1(C)CCC(C(C)(C)NC(C)=O)CC1 (configuration not stated) | > 100 µM (inactive) | > 100 µM (inactive) | > 100 µM (inactive) | > 100 µM (inactive) | > 100 µM (inactive) | > 100 µM (inactive) | > 100 µM (inactive) | > 100 µM (inactive) | > 100 | > 100 µM (inactive) | > 100 µM (inactive) | > 100 µM (inactive) | > 100 µM (inactive) | > 100 µM (inactive) | > 100 µM (inactive) | > 100 µM (inactive) | > 100 µM (inactive) | – | > 100 µM (inactive) | > 100 µM (inactive) |
| NC(C(=O)O)C(O)c1c[nH]cn1 (configuration not stated) | > 100 µM (inactive) | > 100 µM (inactive) | > 100 µM (inactive) | > 100 µM (inactive) | > 100 µM (inactive) | > 100 µM (inactive) | > 100 µM (inactive) | > 100 µM (inactive) | > 100 | > 100 µM (inactive) | > 100 µM (inactive) | > 100 µM (inactive) | > 100 µM (inactive) | > 100 µM (inactive) | > 100 µM (inactive) | > 100 µM (inactive) | > 100 µM (inactive) | > 100 µM (inactive) | – | > 100 µM (inactive) |
